In patent publication US9394264B2 (Receptos, Inc., priority 2009, dated 2016):
Structures can show the parent of a compound that is named as a salt.

target: S1P1/EDG1 (Homo sapiens, UniProt P21453); test: S1P1 CRE-bla CHOK1 reporter assay (inhibition of Forskolin induced cAMP); assay type: cell-based; conditions: agonist activity range, S1P1 CRE-bla CHOK1 cells, 2 μM Forskolin; read-out: S1P1 ACTIVITY
Text: A mammalian expression plasmid containing S1P1/EDG1 cloned into pcDNA3.1 was purchased from Missouri S&T cDNA Resource Centre. The nucleotide and amino acid sequence of human S1P1/EDG1 are published in Hla and Maciag (J Biol Chem, 265(1990), 9308-9313). S1P1/pcDNA3.1 was transfected into the CRE-bla CHO K1 (Invitrogen) cell line, and stable single cell clones were selected using standard techniques. Expression of functional S1P1/EDG1 receptor was confirmed by cell surface FACS with a S1P1 antibody (R&D Systems, clone 218713) and S1P-mediated inhibition of Forskolin induced cAMP.
Cells were seeded into 384-well black wall/clear bottom plates at 10^4 cells/well/19.5 μl assay media (DMEM-phenol free, 0.5% charcoal/dextran stripped serum, 2 mM glutamine, 0.1 mM NEAA, 1 mM Na-Pyruvate, 25 mM Hepes) and incubated for 18 hrs at 37° C. in 5% CO2. Dose response curves (10-point) were generated in 10 mM Hepes, 0.1% Pluronic F127, in the presence of Forskolin. Cells were treated with 0.5 μl compound in the presence of 2 μM Forskolin for 4 hrs at 37° C. The FRET-based β-lactamase fluorescent substrate (LiveBLAzer™-FRET B/G Loading Kit CC4-AM; Invitrogen) was prepared according to manufacturer's directions, and incubated with cells for 2 hrs at room temperature. Plates were read at Ex:410/Em:458 and Ex:410/Em:522, and the response ratio determined. Data was analyzed by non-linear regression to determine the EC50 for inhibition of Forskolin induced cAMP.

S1P1/EDG1, sequence (P21453 whole entry): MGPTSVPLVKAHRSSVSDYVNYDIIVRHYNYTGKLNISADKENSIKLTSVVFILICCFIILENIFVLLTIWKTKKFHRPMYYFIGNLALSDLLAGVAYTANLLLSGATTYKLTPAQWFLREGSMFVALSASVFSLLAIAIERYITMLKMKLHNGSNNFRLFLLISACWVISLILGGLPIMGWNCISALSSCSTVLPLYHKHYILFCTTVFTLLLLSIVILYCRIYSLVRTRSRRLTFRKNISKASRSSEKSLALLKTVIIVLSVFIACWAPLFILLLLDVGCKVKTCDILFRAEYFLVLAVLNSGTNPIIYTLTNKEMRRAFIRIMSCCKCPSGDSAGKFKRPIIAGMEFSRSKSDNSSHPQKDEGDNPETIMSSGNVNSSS

Which EC50 does the source give for `CC(C)Oc1ccc(-c2nc(-c3cccc4c3CCC[C@@H]4NS(=O)(=O)CCN(C)C)no2)cc1C#N` [Compound 45, (S)-N-(5-(5-(3-cyano-4-isopropoxyphenyl)-1,2,4-oxadiazol-3-yl)-1,2,3,4-tetrahydronaphthalen-1-yl)-2-(dimethylamino) ethanesulfonamide] here?
The EC50 was 0.5 to 5 nM.

How did the EC50 turn out when `CC(C)Oc1ccc(-c2nc(-c3cccc4c3CCC[C@@H]4NS(=O)(=O)CCN3CC[C@@H](O)C3)no2)cc1C#N` [Compound 46] was run?
Its EC50 is 0.5 to 5 nM.

Which EC50 does the source give for `CC(C)Oc1ccc(-c2nc(-c3cccc4c3CCC[C@H]4NS(=O)(=O)CCN3CC[C@@H](O)C3)no2)cc1C#N` [Compound 47] here?
Its EC50 is 0.05 to 0.5 nM.

How did the EC50 turn out when `CC(C)Oc1ccc(-c2nc(-c3cccc4c3CCC[C@H]4NCCS(C)(=O)=O)no2)cc1C#N` [Compound 48, (R)-2-isopropoxy-5-(3-(5-((2-(methylsulfonyl)ethyl)amino)-5,6,7,8-tetrahydronaphthalen-1-yl)-1,2,4-oxadiazol-5-yl)benzonitrile] was run?
Its EC50 is 0.05 to 0.5 nM.

With `CC(C)Oc1ccc(-c2nc(-c3cccc4c3CCC[C@H]4NCCO)no2)cc1C#N` [Compound 50, (R)-5-(3-(5-((2-hydroxyethyl)amino)-5,6,7,8-tetrahydronaphthalen-1-yl)-1,2,4-oxadiazol-5-yl)-2-isopropoxybenzonitrile] as the compound, how does the EC50 read?
The EC50 was 0.05 to 0.5 nM.

How did the EC50 turn out when `CC(C)Oc1ccc(-c2nc(-c3cccc4c3CCC[C@@H]4NCCO)no2)cc1C#N` [Compound 51, (S)-5-(3-(5-((2-hydroxyethyl)amino)-5,6,7,8-tetrahydronaphthalen-1-yl)-1,2,4-oxadiazol-5-yl)-2-isopropoxybenzonitrile] was run?
The EC50 was 0.05 to 0.5 nM.

How did the EC50 turn out when `CC(C)Oc1ccc(-c2nc(-c3cccc4c3CCC[C@H]4NCC(=O)O)no2)cc1C#N` [Compound 52, (R)-2-((5-(5-(3-cyano-4-isopropoxyphenyl)-1,2,4-oxadiazol-3-yl)-1,2,3,4-tetrahydronaphthalen-1-yl)amino) acetic acid] was run?
Its EC50 is less than 0.05 nM.

With `CC(C)Oc1ccc(-c2nc(-c3cccc4c3CCC[C@@H]4NCC(=O)O)no2)cc1C#N` [Compound 53, (S)-2-((5-(5-(3-cyano-4-isopropoxyphenyl)-1,2,4-oxadiazol-3-yl)-1,2,3,4-tetrahydronaphthalen-1-yl)amino)acetic acid] as the compound, how does the EC50 read?
Its EC50 is 0.05 to 0.5 nM.

For `CC(C)Oc1ccc(-c2nc(-c3cccc4c3CCC[C@H]4NCC(=O)N3CCCC3)no2)cc1C#N` [Compound 54, (R)-2-isopropoxy-5-(3-(5-((2-oxo-2-(pyrrolidin-1-yl)ethyl)amino)-5,6,7,8-tetrahydronaphthalen-1-yl)-1,2,4-oxadiazol-5-yl)benzonitrile], which EC50 is on record?
Its EC50 is 0.5 to 5 nM.

With `CC(C)Oc1ccc(-c2nc(-c3cccc4c3CCC[C@@H]4NCC(=O)N3CCCC3)no2)cc1C#N` [Compound 55, (S)-2-isopropoxy-5-(3-(5-((2-oxo-2-(pyrrolidin-1-yl)ethyl)amino)-5,6,7,8-tetrahydronaphthalen-1-yl)-1,2,4-oxadiazol-5-yl)benzonitrile] as the compound, how does the EC50 read?
The EC50 was 0.05 to 0.5 nM.

`CC(C)Oc1ccc(-c2ncc(-c3cccc4c3CCC4O)o2)cc1C#N` (stereo not shown) [Compound 56, 5-(5-(1-hydroxy-2,3-dihydro-1H-inden-4-yl)oxazol-2-yl)-2-isopropoxybenzonitrile] was tested. Which EC50 did it give?
Its EC50 is 0.5 to 5 nM.

`CC(C)Oc1ccc(-c2ncc(-c3cccc4c3CCC4NCCO)o2)cc1C#N` (stereo not shown) [Compound 57, 5-(5-(1-(2-hydroxyethylamino)-2,3-dihydro-1H-inden-4-yl)oxazol-2-yl)-2-isopropoxybenzonitrile] was tested. Which EC50 did it give?
Its EC50 is 0.5 to 5 nM.

With `CC(C)Oc1ccc(-c2ncc(-c3cccc4c3CCC4N[C@H](C)CO)o2)cc1C#N` (stereo partly drawn) [Compound 58, 5-(5-(1-((R)-1-hydroxypropan-2-ylamino)-2,3-dihydro-1H-inden-4-yl)oxazol-2-yl)-2-isopropoxybenzonitrile] as the compound, how does the EC50 read?
The EC50 was greater than 5 nM.

How did the EC50 turn out when `CCOc1ccc(Cc2nc(-c3cccc4c3CCC4O)no2)cc1OCC` (stereo not shown) [Compound 60, 4-(5-(3,4-diethoxybenzyl)-1,2,4-oxadiazol-3-yl)-2,3-dihydro-1H-inden-1-ol] was run?
The EC50 was greater than 5 nM.

How did the EC50 turn out when `CCOc1ccc(Cc2nc(-c3cccc4c3CCC4NCCO)no2)cc1OCC` (stereo not shown) [Compound 61, 2-((4-(5-(3,4-diethoxybenzyl)-1,2,4-oxadiazol-3-yl)-2,3-dihydro-1H-inden-1-yl)amino)ethanol] was run?
The EC50 was greater than 5 nM.

Which EC50 does the source give for `CCOc1ccc(Cc2nc(-c3cccc4c3CCC4N[C@H](C)CO)no2)cc1OCC` (stereo partly shown) [Compound 62] here?
The EC50 was greater than 5 nM.

For `CCOc1ccc(Cc2nc(-c3cccc4c3CCC4NCCS(C)(=O)=O)no2)cc1OCC` (stereo not shown) [Compound 63, 4-(5-(3,4-diethoxybenzyl)-1,2,4-oxadiazol-3-yl)-N-(2-(methylsulfonyl)ethyl)-2,3-dihydro-1H-inden-1-amine], which EC50 is on record?
The EC50 was greater than 5 nM.

Which EC50 does the source give for `CCOc1ccc(Cc2nc(-c3cccc4c3CCC4NCCS(=O)(=O)NC)no2)cc1OCC` (stereo not shown) [Compound 64, 2-((4-(5-(3,4-diethoxybenzyl)-1,2,4-oxadiazol-3-yl)-2,3-dihydro-1H-inden-1-yl)amino)-N-methylethanesulfonamide] here?
The EC50 was greater than 5 nM.

How did the EC50 turn out when `CCOc1ccc(Cc2nc(-c3cccc4c3CC[C@H]4N)no2)cc1OCC` [Compound 65, (R)-4-(5-(3,4-diethoxybenzyl)-1,2,4-oxadiazol-3-yl)-2,3-dihydro-1H-inden-1-amine hydrochloride] was run?
Its EC50 is greater than 5 nM.

`CCOc1ccc(Cc2nc(-c3cccc4c3CC[C@@H]4NCC(=O)N(C)C)no2)cc1OCC` [Compound 66, (S)-2-((4-(5-(3,4-diethoxybenzyl)-1,2,4-oxadiazol-3-yl)-2,3-dihydro-1H-inden-1-yl)amino)-N,N-dimethylacetamide] was tested. Which EC50 did it give?
Its EC50 is greater than 5 nM.

With `OCCN[C@@H]1CCc2c(-c3noc(-c4cc(-c5ccccc5)c(C(F)(F)F)s4)n3)cccc21` [Compound 67, (R)-2-(4-(5-(4-phenyl-5-(trifluoromethyl)thiophen-2-yl)-1,2,4-oxadiazol-3-yl)-2,3-dihydro-1H-inden-1-ylamino)ethanol] as the compound, how does the EC50 read?
The EC50 was greater than 5 nM.

Which EC50 does the source give for `CC(C)Oc1ccc(-c2nc(-c3ccc4[nH]ccc4c3)no2)cc1C#N` [Compound 68, 5-(3-(1H-indol-5-yl)-1,2,4-oxadiazol-5-yl)-2-isopropoxybenzonitrile] here?
The EC50 was 0.5 to 5 nM.

How did the EC50 turn out when `CC(C)Oc1ccc(-c2nc(-c3ccc4occc4c3)no2)cc1C#N` [Compound 69, 5-(3-(benzofuran-5-yl)-1,2,4-oxadiazol-5-yl)-2-isopropoxybenzonitrile] was run?
Its EC50 is 0.5 to 5 nM.

For `Cc1cnccc1-c1noc(-c2ccc(OC(C)C)c(C#N)c2)n1` [Compound 70, 2-isopropoxy-5-(3-(3-methylpyridin-4-yl)-1,2,4-oxadiazol-5-yl)benzonitrile], which EC50 is on record?
The EC50 was less than 0.05 nM.

Which EC50 does the source give for `CC(C)Oc1ccc(-c2nc(-c3ccnc(CO)c3)no2)cc1C#N` [Compound 71, 5-(3-(2-(hydroxymethyl)pyridin-4-yl)-1,2,4-oxadiazol-5-yl)-2-isopropoxy-benzonitrile] here?
Its EC50 is 0.05 to 0.5 nM.
